In publication PMC12860872, “Preclinical evaluation of DOTAGA.Glu.(FAPI)2 and DO3A.Glu.(FAPI)2 as theranostics with human dosimetry extrapolation to lutetium-177 and terbium-161 analogs” (European Journal of Nuclear Medicine and Molecular Imaging, 2025):
Where “and” joins values, the source holds several entries; their conditions need not be identical. Equal entries are not always repeated.

Assay: Extrapolated human dosimetry (OLINDA/EXM, ICRP-89 phantoms)
Method: To address inter-animal variability, the TIACs for each source organ were calculated from both the mean nTACs and the nTACs obtainend from fitting the mean ± 1 standard deviation (SD) of the normalized time-activity data, providing upper and lower bounds.
The mice-to-human TIAC extrapolation accounted for species-specific differences in relative source organ masses, m(organ), as compared to the total body weight (WB), for the mice (m) and human (h) models respectively.
(§1) The human organ masses, m(organ)h, were obtained from ICRP-89 adult male and female reference phantoms, while the murine organ masses, m(organ)m, were derived from the standard MOBY mouse model. The extrapolated human TIACs, TIACh were entered in the OLINDA/EXM software to compute the absorbed doses to target organs and the effective dose for adult male, female, and gender-averaged human models. […]
The TIACs, for [177Lu]Lu-DOTAGA.Glu.(FAPI)2 and [177Lu]Lu-DO3A.Glu.(FAPI)2, were determined by time integration of the nTACs. To account for the inter-animal variability, the TIACs for each source organ were calculated using both the mean nTACs and the nTACs obtainend from fitting the mean ±1 standard deviation (SD) of the normalized time-activity data. This approach provided the upper and the lower bounds for the estimated TIACs.
The mice-to-human TIAC extrapolation was obtained considering the different (species-specific) relative source organ masses, m(organ), as compared to the total body weight (WB), for the mice (m) and human (h) models respectively.
as §1, with “the” for “ICRP-89”, “models phantoms defined in ICRP-89,” for “phantoms,”, “TIACs values, TIACh, for each source organ” for “TIACs, TIACh”, “input into the kinetic module of” for “entered in”, “software (version 2.1, HERMES Medical Solutions AB, Stockholm, Sweden)” for “software”

[1] = ICRP 89 Adult Female, extrapolated
[2] = ICRP 89 Adult Male, extrapolated

Absorbed dose (AD average) Adrenals [1]: 2.06E-02 mGy/Mbq | Absorbed dose (AD average) Brain [1]: 4.11E-02 mGy/Mbq | Absorbed dose (AD average) Breasts [1]: 3.94E-02 mGy/Mbq | Absorbed dose (AD average) Esophagus [1]: 4.21E-02 mGy/Mbq | Absorbed dose (AD average) Eyes [1]: 4.11E-02 mGy/Mbq | Absorbed dose (AD average) Gallbladder Wall [1]: 4.47E-02 mGy/Mbq | Absorbed dose (AD average) Heart Wall [1]: 6.03E-02 mGy/Mbq | Absorbed dose (AD average) Left colon [1]: 4.20E-02 mGy/Mbq | Absorbed dose (AD average) Ovaries [1]: 4.17E-02 mGy/Mbq | Absorbed dose (AD average) Rectum [1]: 4.17E-02 mGy/Mbq | Absorbed dose (AD average) Right colon [1]: 4.24E-02 mGy/Mbq | Absorbed dose (AD average) Small Intestine [1]: 4.17E-02 mGy/Mbq | Absorbed dose (AD average) Stomach Wall [1]: 4.21E-02 mGy/Mbq | Absorbed dose (AD average) Thymus [1]: 4.16E-02 mGy/Mbq | Absorbed dose (AD average) Thyroid [1]: 4.05E-02 mGy/Mbq | Absorbed dose (AD average) Urinary Bladder Wall [1]: 4.10E-02 mGy/Mbq | Absorbed dose (AD average) Uterus [1]: 4.14E-02 mGy/Mbq | Effective dose (average) [1]: 5.28E-02 | Absorbed dose (AD average) Adrenals [2]: 1.63E-02 mGy/Mbq | Absorbed dose (AD average) Brain [2]: 2.76E-02 mGy/Mbq | Absorbed dose (AD average) Esophagus [2]: 2.88E-02 mGy/Mbq | Absorbed dose (AD average) Eyes [2]: 2.76E-02 mGy/Mbq | Absorbed dose (AD average) Gallbladder Wall [2]: 3.50E-02 mGy/Mbq | Absorbed dose (AD average) Heart Wall [2]: 5.00E-02 mGy/Mbq | Absorbed dose (AD average) Left colon [2]: 1.18E-01 mGy/Mbq | Absorbed dose (AD average) Prostate [2]: 2.77E-02 mGy/Mbq | Absorbed dose (AD average) Rectum [2]: 1.17E-01 mGy/Mbq | Absorbed dose (AD average) Right colon [2]: 7.38E-02 mGy/Mbq | Absorbed dose (AD average) Stomach Wall [2]: 4.15E-02 mGy/Mbq | Absorbed dose (AD average) Testes [2]: 2.65E-02 mGy/Mbq | Absorbed dose (AD average) Thymus [2]: 2.77E-02 mGy/Mbq | Absorbed dose (AD average) Thyroid [2]: 2.76E-02 mGy/Mbq | Absorbed dose (AD average) Urinary Bladder Wall [2]: 2.75E-02 mGy/Mbq | Effective dose (average) (ICRP 89 Adult Male, extrapolated, in mSv/MBq (unit assumed)): 4.69E-02 | higher tissue doses vs. the 177Lu-labeled analogs (human extrapolation, average over tissues): ~ 38%
SMILES: N#C[C@@H]1CC(F)(F)CN1C(=O)CNC(=O)c1ccnc2ccc(OCCCCNC(=O)CC[C@H](NC(=O)CCC(C(=O)O)N3CCN(CC(=O)[O-])CCN(CC(=O)[O-])CCN(CC(=O)[O-])CC3)C(=O)NCCCCOc3ccc4nccc(C(=O)NCC(=O)N5CC(F)(F)C[C@H]5C#N)c4c3)cc12.[161Tb+3] (stereo partly drawn) [[^161Tb]Tb-DOTAGA.Glu.(FAPI)2]
Absorbed dose (AD average) Kidneys [1]: 6.83E-02 ± 0.003 mGy/Mbq and 6.83E-02 mGy/Mbq | Absorbed dose (AD average) Liver [1]: 2.78E-01 ± 0.02 mGy/Mbq and 2.78E-01 mGy/Mbq | Absorbed dose (AD average) Lungs [1]: 6.37E-02 ± 0.01 mGy/Mbq and 6.37E-02 mGy/Mbq | Absorbed dose (AD average) Osteogenic Cells [1]: 1.23E-01 ± 0.01 mGy/Mbq and 1.23E-01 mGy/Mbq | Absorbed dose (AD average) Pancreas [1]: 5.34E-02 ± 0.003 mGy/Mbq and 5.34E-02 mGy/Mbq | Absorbed dose (AD average) Red Marrow [1]: 4.59E-02 ± 0.01 mGy/Mbq and 4.59E-02 mGy/Mbq | Absorbed dose (AD average) Salivary Glands [1]: 1.73E-01 ± 0.01 mGy/Mbq and 1.73E-01 mGy/Mbq | Absorbed dose (AD average) Spleen [1]: 4.83E-02 ± 0.01 mGy/Mbq and 4.83E-02 mGy/Mbq | Absorbed dose (AD average) Total Body [1]: 6.01E-02 ± 0.01 mGy/Mbq and 6.01E-02 mGy/Mbq | Absorbed dose (AD average) Kidneys [2]: 5.60E-02 ± 0.002 mGy/Mbq and 5.60E-02 mGy/Mbq | Absorbed dose (AD average) Liver [2]: 2.29E-01 ± 0.02 mGy/Mbq and 2.29E-01 mGy/Mbq | Absorbed dose (AD average) Lungs [2]: 5.19E-02 ± 0.004 mGy/Mbq and 5.19E-02 mGy/Mbq | Absorbed dose (AD average) Osteogenic Cells [2]: 1.24E-01 ± 0.01 mGy/Mbq and 1.24E-01 mGy/Mbq | Absorbed dose (AD average) Pancreas [2]: 4.25E-02 ± 0.002 mGy/Mbq and 4.25E-02 mGy/Mbq | Absorbed dose (AD average) Red Marrow [2]: 3.37E-02 ± 0.003 mGy/Mbq and 3.37E-02 mGy/Mbq | Absorbed dose (AD average) Salivary Glands [2]: 1.43E-01 ± 0.01 mGy/Mbq and 1.43E-01 mGy/Mbq | Absorbed dose (AD average) Small Intestine [2]: 5.69E-02 ± 0.02 mGy/Mbq and 5.69E-02 mGy/Mbq | Absorbed dose (AD average) Spleen [2]: 3.92E-02 ± 0.01 mGy/Mbq and 3.92E-02 mGy/Mbq | Absorbed dose (AD average) Total Body [2]: 4.51E-02 ± 0.01 mGy/Mbq and 4.51E-02 mGy/Mbq
